Experimental data as given in patent US11945822B2, “Pyrazolo-triazine and/or pyrazolo-pxrimidine derivatives as selective inhibitor of cyclin dependent kinase” (QURIENT CO., LTD., priority 2018, dated 2024).

What follows are compounds tested against T1, CDK1/Cyclin B (Homo sapiens, UniProt P06493) (assay: Enzymatic assay for CDK1 (FRET based LANCE Ultra kinase assay)). Details: read-out: CDK1 enzymatic activity (IC50 range).
T1 construct: purchased Invitrogen PR4768C
Type: biochemical
Summary of the method: (§1)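 LANCE Ultra TR-FRET: ULight-MBP peptide (68 nM) with ATP at Km, […], 60 min at 23° C. EDTA plus Eu-anti-phospho-MBP added, another 60 min, then 665/615 nm emission read. Compounds tested as 8-dose 4-fold DMSO dilutions.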

T1 sequence (P06493 whole entry): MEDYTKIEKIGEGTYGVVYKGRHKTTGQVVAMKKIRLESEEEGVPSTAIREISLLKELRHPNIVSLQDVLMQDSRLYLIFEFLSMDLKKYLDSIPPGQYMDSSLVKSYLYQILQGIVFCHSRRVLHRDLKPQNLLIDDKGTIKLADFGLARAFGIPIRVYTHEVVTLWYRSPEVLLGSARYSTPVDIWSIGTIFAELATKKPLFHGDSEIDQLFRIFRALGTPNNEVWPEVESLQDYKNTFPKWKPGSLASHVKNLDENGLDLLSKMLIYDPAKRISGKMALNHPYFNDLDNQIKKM
T1 sequence (P14635 whole entry partner): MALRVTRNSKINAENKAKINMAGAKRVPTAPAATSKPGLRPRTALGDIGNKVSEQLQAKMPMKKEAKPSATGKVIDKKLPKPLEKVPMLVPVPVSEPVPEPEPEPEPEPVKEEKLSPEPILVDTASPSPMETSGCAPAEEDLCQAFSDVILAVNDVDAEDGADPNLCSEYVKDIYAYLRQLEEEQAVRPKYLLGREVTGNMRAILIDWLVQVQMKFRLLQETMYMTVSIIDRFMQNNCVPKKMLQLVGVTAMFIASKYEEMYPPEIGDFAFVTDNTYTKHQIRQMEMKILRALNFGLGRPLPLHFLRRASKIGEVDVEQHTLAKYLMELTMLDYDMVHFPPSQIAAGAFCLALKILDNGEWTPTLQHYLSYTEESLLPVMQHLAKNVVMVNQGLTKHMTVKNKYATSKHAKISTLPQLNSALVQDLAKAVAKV

| SMILES | IC50 [nM] |
| --- | --- |
| CC(C)c1cnn2c(NCc3ccccc3-n3cccn3)nc(Nc3ccc(C4CCNCC4)cn3)nc12 [Compound 169] | > 1000 |
| CC(C)c1cnn2c(NCc3ccccc3-n3ccc(C(C)(C)O)n3)nc(N3CCC(N)CC3)nc12 [Compound 236] | 100 to 1000 |
| CC[C@@H](N)COc1nc(NCc2ccccc2-c2ccc3ccccc3n2)n2ncc(C(C)C)c2n1 [Compound 237] | > 1000 |

The remaining lines, values ahead:

| IC50 [nM] | SMILES |
| --- | --- |
| 100 to 1000 | CC(C)c1cnn2c(NCc3ccccc3Oc3ccc(NC(=O)CCCN(C)C)cc3)nc(N3CCC(N)CC3)nc12 [Compound 91] |
| > 1000 | CC(C)c1cnn2c(NCc3cccc(Oc4ccc(F)c(NC(=O)CCCN(C)C)c4)c3)nc(N3CCC(N)CC3)nc12 [Compound 93] |
| 100 to 1000 | CC(C)c1cnn2c(NCc3cccc(Oc4ccc(Cl)c(NC(=O)CCCN(C)C)c4)c3)nc(N3CCC(N)CC3)nc12 [Compound 94] |

What follows are compounds tested against T2, CDK2/Cyclin A (Homo sapiens, UniProt P24941) (assay: Enzymatic assay for CDK2 (FRET based LANCE Ultra kinase assay)). Details: read-out: CDK2 enzymatic activity (IC50 range).
T2 construct: purchased Invitrogen PV6290
Type: biochemical
Summary of the method: as §1

| SMILES | IC50 [nM] |
| --- | --- |
| CC(C)c1cnn2c(NCc3ccccc3-n3cccn3)nc(Nc3ccc(C4CCNCC4)cn3)nc12 [Compound 169] | > 1000 |
| CC(C)c1cnn2c(NCc3ccccc3-n3ccc(C(C)(C)O)n3)nc(N3CCC(N)CC3)nc12 [Compound 236] | 100 to 1000 |
| CC[C@@H](N)COc1nc(NCc2ccccc2-c2ccc3ccccc3n2)n2ncc(C(C)C)c2n1 [Compound 237] | > 1000 |

Other lines, results leading:

| IC50 [nM] | SMILES |
| --- | --- |
| 100 to 1000 | CC(C)c1cnn2c(NCc3ccccc3Oc3ccc(NC(=O)CCCN(C)C)cc3)nc(N3CCC(N)CC3)nc12 [Compound 91] |
| 100 to 1000 | CC(C)c1cnn2c(NCc3cccc(Oc4ccc(F)c(NC(=O)CCCN(C)C)c4)c3)nc(N3CCC(N)CC3)nc12 [Compound 93] |
| 100 to 1000 | CC(C)c1cnn2c(NCc3cccc(Oc4ccc(Cl)c(NC(=O)CCCN(C)C)c4)c3)nc(N3CCC(N)CC3)nc12 [Compound 94] |

What follows are compounds tested against T3, CDK5/p25 (Homo sapiens, UniProt Q00535) (assay: Enzymatic assay for CDK5 (FRET based LANCE Ultra kinase assay)). Details: read-out: CDK5 enzymatic activity (IC50 range).
T3 construct: purchased Invitrogen PR8543B
Type: biochemical
Summary of the method: as §1

T3 sequence (Q00535 whole entry): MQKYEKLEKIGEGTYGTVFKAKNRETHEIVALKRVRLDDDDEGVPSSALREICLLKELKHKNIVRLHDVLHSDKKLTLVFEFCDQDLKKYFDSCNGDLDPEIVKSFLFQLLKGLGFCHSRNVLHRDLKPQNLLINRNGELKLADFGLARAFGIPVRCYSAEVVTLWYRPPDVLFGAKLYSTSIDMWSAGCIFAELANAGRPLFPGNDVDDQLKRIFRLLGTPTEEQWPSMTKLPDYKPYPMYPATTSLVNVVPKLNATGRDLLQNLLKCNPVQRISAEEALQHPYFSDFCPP
T3 sequence (Q15078 99-307 partner limits assumed): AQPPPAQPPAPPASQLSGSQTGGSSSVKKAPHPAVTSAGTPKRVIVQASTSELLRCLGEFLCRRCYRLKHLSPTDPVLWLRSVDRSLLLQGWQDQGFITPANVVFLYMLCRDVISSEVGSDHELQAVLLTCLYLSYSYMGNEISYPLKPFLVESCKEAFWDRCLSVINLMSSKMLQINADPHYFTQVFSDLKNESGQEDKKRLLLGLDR

| SMILES | IC50 [nM] |
| --- | --- |
| CC(C)c1cnn2c(NCc3ccccc3-n3cccn3)nc(Nc3ccc(C4CCNCC4)cn3)nc12 [Compound 169] | > 1000 |
| CC(C)c1cnn2c(NCc3ccccc3-n3ccc(C(C)(C)O)n3)nc(N3CCC(N)CC3)nc12 [Compound 236] | 100 to 1000 |
| CC[C@@H](N)COc1nc(NCc2ccccc2-c2ccc3ccccc3n2)n2ncc(C(C)C)c2n1 [Compound 237] | > 1000 |

Second part, the compound after the results:

| IC50 [nM] | SMILES |
| --- | --- |
| 100 to 1000 | CC(C)c1cnn2c(NCc3ccccc3Oc3ccc(NC(=O)CCCN(C)C)cc3)nc(N3CCC(N)CC3)nc12 [Compound 91] |
| 100 to 1000 | CC(C)c1cnn2c(NCc3cccc(Oc4ccc(F)c(NC(=O)CCCN(C)C)c4)c3)nc(N3CCC(N)CC3)nc12 [Compound 93] |
| 100 to 1000 | CC(C)c1cnn2c(NCc3cccc(Oc4ccc(Cl)c(NC(=O)CCCN(C)C)c4)c3)nc(N3CCC(N)CC3)nc12 [Compound 94] |

These compounds were tested against T4, CDK7/Cyclin H/MNAT1 (Homo sapiens, UniProt P50613) (assay: Enzymatic assay for CDK7 (FRET based LANCE Ultra kinase assay)). Details: CDK7 over CDK1.
T4 construct: purchased Invitrogen PR6749B
Type: biochemical
Summary of the method: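 LANCE Ultra TR-FRET kinase assay using a ULight-labeled peptide substrate and a Eu-labeled anti-phospho antibody, with ATP at its Km. Purified CDK/cyclin complex was added to compound after brief centrifugation.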

T4 sequence (P50613 whole entry): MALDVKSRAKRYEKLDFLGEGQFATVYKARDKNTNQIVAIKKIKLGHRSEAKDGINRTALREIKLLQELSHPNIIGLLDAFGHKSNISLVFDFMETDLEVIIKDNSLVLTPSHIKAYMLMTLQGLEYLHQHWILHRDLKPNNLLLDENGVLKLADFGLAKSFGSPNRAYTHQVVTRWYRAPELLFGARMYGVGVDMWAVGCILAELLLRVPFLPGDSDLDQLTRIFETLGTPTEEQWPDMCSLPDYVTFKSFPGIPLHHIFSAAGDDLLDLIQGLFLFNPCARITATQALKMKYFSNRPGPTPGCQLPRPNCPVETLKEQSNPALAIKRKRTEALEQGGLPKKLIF
T4 sequence (P51946 whole entry partner): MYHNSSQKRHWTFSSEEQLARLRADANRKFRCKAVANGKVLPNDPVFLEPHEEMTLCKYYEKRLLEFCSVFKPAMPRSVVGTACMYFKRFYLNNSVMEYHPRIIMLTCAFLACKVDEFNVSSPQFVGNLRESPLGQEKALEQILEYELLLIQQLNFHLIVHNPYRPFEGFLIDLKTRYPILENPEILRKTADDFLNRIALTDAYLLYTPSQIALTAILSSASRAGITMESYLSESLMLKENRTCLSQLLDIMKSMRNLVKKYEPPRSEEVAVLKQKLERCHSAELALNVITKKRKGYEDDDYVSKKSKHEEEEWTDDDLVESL
T4 sequence (P51948 whole entry partner): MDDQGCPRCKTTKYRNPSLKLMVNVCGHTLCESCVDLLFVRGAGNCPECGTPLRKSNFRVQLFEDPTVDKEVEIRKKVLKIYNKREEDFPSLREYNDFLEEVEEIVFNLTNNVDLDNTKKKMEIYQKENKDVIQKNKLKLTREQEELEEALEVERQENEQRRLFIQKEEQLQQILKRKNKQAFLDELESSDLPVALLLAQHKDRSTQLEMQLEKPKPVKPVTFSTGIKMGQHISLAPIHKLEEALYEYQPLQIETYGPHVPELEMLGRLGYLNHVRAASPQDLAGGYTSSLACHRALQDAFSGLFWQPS

| SMILES | CDK1/CDK7: Selectivity of CDK7 inhibition over CDK1 inhibition |
| --- | --- |
| CC(C)c1cnn2c(NCc3ccccc3-n3cccn3)nc(Nc3ccc(C4CCNCC4)cn3)nc12 [Compound 169] | A (A=greater than 200 fold) |
| CC(C)c1cnn2c(NCc3ccccc3-n3ccc(C(C)(C)O)n3)nc(N3CCC(N)CC3)nc12 [Compound 236] | A (A=greater than 200 fold) |
| CC[C@@H](N)COc1nc(NCc2ccccc2-c2ccc3ccccc3n2)n2ncc(C(C)C)c2n1 [Compound 237] | A (A=greater than 200 fold) |

Other lines, results leading:

| CDK1/CDK7: Selectivity of CDK7 inhibition over CDK1 inhibition | SMILES |
| --- | --- |
| A (A=greater than 200 fold) | CC(C)c1cnn2c(NCc3ccccc3Oc3ccc(NC(=O)CCCN(C)C)cc3)nc(N3CCC(N)CC3)nc12 [Compound 91] |
| A (A=greater than 200 fold) | CC(C)c1cnn2c(NCc3cccc(Oc4ccc(F)c(NC(=O)CCCN(C)C)c4)c3)nc(N3CCC(N)CC3)nc12 [Compound 93] |
| A (A=greater than 200 fold) | CC(C)c1cnn2c(NCc3cccc(Oc4ccc(Cl)c(NC(=O)CCCN(C)C)c4)c3)nc(N3CCC(N)CC3)nc12 [Compound 94] |

Same assay, conditions: CDK7 over CDK2

| SMILES | CDK2/CDK7: Selectivity of CDK7 inhibition over CDK2 inhibition |
| --- | --- |
| CC(C)c1cnn2c(NCc3ccccc3Oc3ccc(NC(=O)CCCN(C)C)cc3)nc(N3CCC(N)CC3)nc12 [Compound 91] | B (B=less than 200 fold, but greater than 20 fold) |
| CC(C)c1cnn2c(NCc3cccc(Oc4ccc(F)c(NC(=O)CCCN(C)C)c4)c3)nc(N3CCC(N)CC3)nc12 [Compound 93] | B (B=less than 200 fold, but greater than 20 fold) |
| CC(C)c1cnn2c(NCc3cccc(Oc4ccc(Cl)c(NC(=O)CCCN(C)C)c4)c3)nc(N3CCC(N)CC3)nc12 [Compound 94] | B (B=less than 200 fold, but greater than 20 fold) |
| CC(C)c1cnn2c(NCc3ccccc3-n3cccn3)nc(Nc3ccc(C4CCNCC4)cn3)nc12 [Compound 169] | B (B=less than 200 fold, but greater than 20 fold) |
| CC(C)c1cnn2c(NCc3ccccc3-n3ccc(C(C)(C)O)n3)nc(N3CCC(N)CC3)nc12 [Compound 236] | B (B=less than 200 fold, but greater than 20 fold) |
| CC[C@@H](N)COc1nc(NCc2ccccc2-c2ccc3ccccc3n2)n2ncc(C(C)C)c2n1 [Compound 237] | A (A=greater than 200 fold) |

Same assay, conditions: CDK7 over CDK5

| SMILES | CDK5/CDK7: Selectivity of CDK7 inhibition over CDK5 inhibition |
| --- | --- |
| CC(C)c1cnn2c(NCc3ccccc3Oc3ccc(NC(=O)CCCN(C)C)cc3)nc(N3CCC(N)CC3)nc12 [Compound 91] | B (B=less than 200 fold, but greater than 20 fold) |
| CC(C)c1cnn2c(NCc3cccc(Oc4ccc(F)c(NC(=O)CCCN(C)C)c4)c3)nc(N3CCC(N)CC3)nc12 [Compound 93] | B (B=less than 200 fold, but greater than 20 fold) |
| CC(C)c1cnn2c(NCc3cccc(Oc4ccc(Cl)c(NC(=O)CCCN(C)C)c4)c3)nc(N3CCC(N)CC3)nc12 [Compound 94] | B (B=less than 200 fold, but greater than 20 fold) |
| CC(C)c1cnn2c(NCc3ccccc3-n3cccn3)nc(Nc3ccc(C4CCNCC4)cn3)nc12 [Compound 169] | B (B=less than 200 fold, but greater than 20 fold) |
| CC(C)c1cnn2c(NCc3ccccc3-n3ccc(C(C)(C)O)n3)nc(N3CCC(N)CC3)nc12 [Compound 236] | B (B=less than 200 fold, but greater than 20 fold) |
| CC[C@@H](N)COc1nc(NCc2ccccc2-c2ccc3ccccc3n2)n2ncc(C(C)C)c2n1 [Compound 237] | A (A=greater than 200 fold) |

Same assay, conditions: read-out: CDK7 enzymatic activity (IC50 range)

| SMILES | IC50 [nM] |
| --- | --- |
| CC(C)c1cnn2c(NCc3ccccc3-n3cccn3)nc(Nc3ccc(C4CCNCC4)cn3)nc12 [Compound 169] | < 100 |
| CC(C)c1cnn2c(NCc3ccccc3-n3ccc(C(C)(C)O)n3)nc(N3CCC(N)CC3)nc12 [Compound 236] | < 100 |
| CC[C@@H](N)COc1nc(NCc2ccccc2-c2ccc3ccccc3n2)n2ncc(C(C)C)c2n1 [Compound 237] | < 100 |

Next, values leading:

| IC50 [nM] | SMILES |
| --- | --- |
| < 100 | CC(C)c1cnn2c(NCc3ccccc3Oc3ccc(NC(=O)CCCN(C)C)cc3)nc(N3CCC(N)CC3)nc12 [Compound 91] |
| < 100 | CC(C)c1cnn2c(NCc3cccc(Oc4ccc(F)c(NC(=O)CCCN(C)C)c4)c3)nc(N3CCC(N)CC3)nc12 [Compound 93] |
| < 100 | CC(C)c1cnn2c(NCc3cccc(Oc4ccc(Cl)c(NC(=O)CCCN(C)C)c4)c3)nc(N3CCC(N)CC3)nc12 [Compound 94] |

Each compound was assayed on HCT116 (assay: Cellular HCT116 viability assay (CellTiter-Glo, 72 hours)). Details: Homo sapiens, HCT-116.
Type: cell-based
Summary of the method: (§2)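 Cells plated in 96 wells and exposed to compound 72 h at 37 °C, 5% CO2, final DMSO below 0.1%, DMSO control. Viability by CellTiter-Glo luminescence, duplicate.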

| IC50 [nM] | SMILES |
| --- | --- |
| < 1000 | CC(C)c1cnn2c(NCc3ccccc3-n3ccc(C(C)(C)O)n3)nc(N3CCC(N)CC3)nc12 [Compound 236] |
| 1000 to 10000 | CC[C@@H](N)COc1nc(NCc2ccccc2-c2ccc3ccccc3n2)n2ncc(C(C)C)c2n1 [Compound 237] |

What follows are compounds tested on H460 (assay: Cellular H460 viability assay (CellTiter-Glo, 72 hours)). Details: Homo sapiens, NCI-H460.
Type: cell-based
Summary of the method: as §2

| IC50 [nM] | SMILES |
| --- | --- |
| < 1000 | CC(C)c1cnn2c(NCc3ccccc3-n3ccc(C(C)(C)O)n3)nc(N3CCC(N)CC3)nc12 [Compound 236] |
| 1000 to 10000 | CC[C@@H](N)COc1nc(NCc2ccccc2-c2ccc3ccccc3n2)n2ncc(C(C)C)c2n1 [Compound 237] |

These compounds were tested on MV4-11 (assay: Cellular MV4-11 viability assay (CellTiter-Glo, 72 hours)). Details: Homo sapiens.
Type: cell-based
Summary of the method: as §2

| IC50 [nM] | SMILES |
| --- | --- |
| < 1000 | CC(C)c1cnn2c(NCc3ccccc3-n3ccc(C(C)(C)O)n3)nc(N3CCC(N)CC3)nc12 [Compound 236] |
| 1000 to 10000 | CC[C@@H](N)COc1nc(NCc2ccccc2-c2ccc3ccccc3n2)n2ncc(C(C)C)c2n1 [Compound 237] |

What follows are compounds tested on MOLT-4 (assay: Cellular MOLT-4 viability assay (CellTiter-Glo, 72 hours)). Details: Homo sapiens, MOLT4 viability assay.
Type: cell-based
Description: All cell lines were routinely tested for mycoplasma.
The effect of the CDK7 inhibitor to inhibit the growth of target cancer cells was evaluated through the 72 hours time period of viability assay. Briefly, the candidate cell line ware plated in 96 well plate at the following density of cells respectively. […] DMSO solvent without compound served as a control and final DMSO concentration less than 0.1%. After 72 hours of incubation at 37° C., 5% CO2 incubator, cells were analyzed for the viability using the CellTiter-Glo Luminescent Cell Viability Assay (Promega, Cat #G7570). All viability assays were performed in duplicate and Luminescence was read using an Envision (Perkin Elmer, USA). Data was analyzed using XLfit software.

| IC50 [nM] | SMILES |
| --- | --- |
| 1000 to 10000 | CC(C)c1cnn2c(NCc3ccccc3Oc3ccc(NC(=O)CCCN(C)C)cc3)nc(N3CCC(N)CC3)nc12 [Compound 91] |
| 1000 to 10000 | CC(C)c1cnn2c(NCc3cccc(Oc4ccc(F)c(NC(=O)CCCN(C)C)c4)c3)nc(N3CCC(N)CC3)nc12 [Compound 93] |
| 1000 to 10000 | CC(C)c1cnn2c(NCc3cccc(Oc4ccc(Cl)c(NC(=O)CCCN(C)C)c4)c3)nc(N3CCC(N)CC3)nc12 [Compound 94] |
| 1000 to 10000 | CC(C)c1cnn2c(NCc3ccccc3-n3cccn3)nc(Nc3ccc(C4CCNCC4)cn3)nc12 [Compound 169] |
